# Reference: ChEMBL document CHEMBL1201862, “PubChem BioAssay data set” (2004)
#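 The compound was tested at five concentrations on cells cultured in 96-well plates, with a 48-hour exposure period. GI50 marks 50% less growth.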 Calls of active or inactive are those of the source. No stated cut-off is given here; in the data, active = GI50 up to about 1.1 µM and inactive = higher.
# Key:
# Test in all cases: NCI-60 cell line screen, 48 h
# 786-0 = tested on: 786-0
# IGROV-1 = tested on: IGROV-1
# MOLT-4 = tested on: MOLT-4
# HCT-15 = tested on: HCT-15
# EKVX = tested on: EKVX
# SK-MEL-5 = tested on: SK-MEL-5
# UACC-257 = tested on: UACC-257
# ACHN = tested on: ACHN
# MDA-MB-435 = tested on: MDA-MB-435
# RXF 393 = tested on: RXF 393
# T47D = tested on: T47D
# SW-620 = tested on: SW-620
# SF-539 = tested on: SF-539
# CAKI-1 = tested on: CAKI-1
# SN12C = tested on: SN12C
# SK-OV-3 = tested on: SK-OV-3
# MDA-N = tested on: MDA-N
# RPMI-8226 = tested on: RPMI-8226
# TK-10 = tested on: TK-10
# OVCAR-5 = tested on: OVCAR-5
# SNB-75 = tested on: SNB-75
# M14 = tested on: M14
# K562 = tested on: K562
# A549 = tested on: A549
# SF-268 = tested on: SF-268
# MDA-MB-231 = tested on: MDA-MB-231
# COLO 205 = tested on: COLO 205
# DU-145 = tested on: DU-145
# SK-MEL-28 = tested on: SK-MEL-28
# HCC 2998 = tested on: HCC 2998
# OVCAR-8 = tested on: OVCAR-8
# NCI-H226 = tested on: NCI-H226
# MCF7 = tested on: MCF7
# BT-549 = tested on: BT-549
# UACC-62 = tested on: UACC-62
# NCI-H460 = tested on: NCI-H460
# HOP-62 = tested on: HOP-62
# HCT-116 = tested on: HCT-116
# HL-60 = tested on: HL-60
# KM12 = tested on: KM12
# Hs-578T = tested on: Hs-578T
# A498 = tested on: A498
# SK-MEL-2 = tested on: SK-MEL-2
# SF-295 = tested on: SF-295
# UO-31 = tested on: UO-31
# SNB-19 = tested on: SNB-19
# PC-3 = tested on: PC-3
# U-251 = tested on: U-251
# OVCAR-4 = tested on: OVCAR-4
# NCI-H23 = tested on: NCI-H23
# HOP-92 = tested on: HOP-92
# NCI-H522 = tested on: NCI-H522
# LOX IMVI = tested on: LOX IMVI
# OVCAR-3 = tested on: OVCAR-3
# Malme-3M = tested on: Malme-3M
# HT-29 = tested on: HT-29
# CCRF-CEM = tested on: CCRF-CEM
compound,measurement,setting,value
Cc1cn([C@H]2CN(O)C[C@@H](CO)O2)c(=O)[nH]c1=O,GI50,786-0,> 100 µM (inactive)
same,GI50,IGROV-1,> 100 µM (inactive)
same,GI50,MOLT-4,> 100 µM (inactive)
same,GI50,HCT-15,> 100 µM
same,GI50,EKVX,> 100 µM (inactive)
same,GI50,SK-MEL-5,> 100 µM (inactive)
same,GI50,UACC-257,> 100 µM (inactive)
same,GI50,ACHN,> 100 µM (inactive)
same,GI50,MDA-MB-435,> 100 µM (inactive)
same,GI50,RXF 393,> 100 µM (inactive)
same,GI50,T47D,> 100 µM (inactive)
same,GI50,SW-620,> 100 µM (inactive)
same,GI50,SF-539,> 100 µM (inactive)
same,GI50,CAKI-1,> 100 µM (inactive)
same,GI50,SN12C,> 100 µM (inactive)
same,GI50,SK-OV-3,> 100 µM (inactive)
same,GI50,MDA-N,> 100 µM (inactive)
same,GI50,RPMI-8226,> 100 µM (inactive)
same,GI50,TK-10,> 100 µM (inactive)
same,GI50,OVCAR-5,> 100 µM (inactive)
same,GI50,SNB-75,> 100 µM (inactive)
same,GI50,M14,> 100 µM (inactive)
same,GI50,K562,> 100 µM (inactive)
same,GI50,A549,> 100 µM (inactive)
same,GI50,SF-268,> 100 µM (inactive)
same,GI50,MDA-MB-231,> 100 µM (inactive)
same,GI50,COLO 205,> 100 µM (inactive)
same,GI50,DU-145,> 100 µM (inactive)
same,GI50,SK-MEL-28,> 100 µM (inactive)
same,GI50,HCC 2998,> 100 µM (inactive)
same,GI50,OVCAR-8,> 100 µM (inactive)
same,GI50,NCI-H226,> 100 µM (inactive)
same,GI50,MCF7,> 100 µM (inactive)
same,GI50,BT-549,> 100 µM (inactive)
same,GI50,UACC-62,> 100 µM (inactive)
same,GI50,NCI-H460,> 100 µM (inactive)
same,GI50,HOP-62,> 100 µM (inactive)
same,GI50,HCT-116,> 100 µM (inactive)
same,GI50,HL-60,> 100 µM (inactive)
same,GI50,KM12,> 100 µM (inactive)
same,GI50,Hs-578T,> 100 µM (inactive)
same,GI50,A498,> 100 µM (inactive)
same,GI50,SK-MEL-2,> 100 µM (inactive)
same,GI50,SF-295,> 100 µM (inactive)
same,GI50,UO-31,> 100 µM (inactive)
same,GI50,SNB-19,> 100 µM (inactive)
same,GI50,PC-3,> 100 µM (inactive)
same,GI50,U-251,> 100 µM (inactive)
same,GI50,OVCAR-4,> 100 µM (inactive)
C=C1C(=O)OC2/C=C(\C)C(O)CC(O)C(C)(O)CC(OC(=O)/C(C)=C/C)C12 (stereo unspecified),GI50,786-0,41.5 µM (inactive)
same,GI50,IGROV-1,31.7 µM (inactive)
same,GI50,MOLT-4,1.34 µM (inactive)
same,GI50,HCT-15,28.4 µM
same,GI50,EKVX,43.1 µM (inactive)
same,GI50,SK-MEL-5,36.7 µM (inactive)
same,GI50,UACC-257,83.8 µM (inactive)
same,GI50,ACHN,39.2 µM (inactive)
same,GI50,MDA-MB-435,36.5 µM (inactive)
same,GI50,NCI-H23,46.9 µM (inactive)
same,GI50,RXF 393,> 60.1 µM (inactive)
same,GI50,T47D,65.5 µM (inactive)
same,GI50,HOP-92,41.9 µM (inactive)
same,GI50,SW-620,35.6 µM (inactive)
same,GI50,SF-539,42.4 µM (inactive)
same,GI50,NCI-H522,28.1 µM (inactive)
same,GI50,CAKI-1,29 µM (inactive)
same,GI50,SN12C,39.8 µM (inactive)
same,GI50,SK-OV-3,53.5 µM (inactive)
same,GI50,MDA-N,37.3 µM (inactive)
same,GI50,RPMI-8226,23 µM (inactive)
same,GI50,TK-10,> 67.5 µM (inactive)
same,GI50,OVCAR-5,> 73.8 µM (inactive)
same,GI50,SNB-75,38.2 µM (inactive)
same,GI50,M14,60.1 µM (inactive)
same,GI50,LOX IMVI,32.3 µM (inactive)
same,GI50,K562,32.6 µM (inactive)
same,GI50,OVCAR-3,44.2 µM (inactive)
same,GI50,A549,53.6 µM (inactive)
same,GI50,SF-268,42.3 µM (inactive)
same,GI50,MDA-MB-231,49.5 µM (inactive)
same,GI50,COLO 205,57.8 µM (inactive)
same,GI50,DU-145,34.3 µM (inactive)
same,GI50,SK-MEL-28,47.9 µM (inactive)
same,GI50,HCC 2998,34.9 µM (inactive)
same,GI50,Malme-3M,50 µM (inactive)
same,GI50,OVCAR-8,32.5 µM (inactive)
same,GI50,NCI-H226,33.4 µM (inactive)
same,GI50,MCF7,56.8 µM (inactive)
same,GI50,BT-549,26.1 µM (inactive)
same,GI50,UACC-62,33.7 µM (inactive)
same,GI50,NCI-H460,32.1 µM (inactive)
same,GI50,HOP-62,> 100 µM (inactive)
same,GI50,HCT-116,32.9 µM (inactive)
same,GI50,HL-60,39.9 µM (inactive)
same,GI50,HT-29,39.6 µM (inactive)
same,GI50,KM12,29.6 µM (inactive)
same,GI50,Hs-578T,44.2 µM (inactive)
same,GI50,A498,42.2 µM (inactive)
same,GI50,SK-MEL-2,43.1 µM (inactive)
same,GI50,SF-295,55.1 µM (inactive)
same,GI50,UO-31,44.6 µM (inactive)
same,GI50,SNB-19,66.5 µM (inactive)
same,GI50,CCRF-CEM,34.3 µM (inactive)
same,GI50,PC-3,46.1 µM (inactive)
same,GI50,U-251,38.1 µM (inactive)
same,GI50,OVCAR-4,45.2 µM (inactive)
